Measured values: patent publication US20240158439A1, “INHIBITORS OF ANTIGEN PRESENTATION BY MHC CLASS II HLA-DRB1*15:01 MOLECULES WITH ENHANCED METABOLIC STABILITY” (Provid Pharmaceuticals Inc., priority 2021, published 2024)
Where two headings read alike, the source gives them in different places. *1 amine or outer side, *2 acyl side, *3 side chain or, on linkers, in order; H or OH if unused. Where a SMILES comes first, the peptide text is derived from it. [ ]: non-standard residue; d: D form. The star is where a group is joined. ξ: configuration not given here. ξGly(4-Pip(1-amidino)) = N=C(N)N1CCC(C(N)C(=O)O)CC1; Ala(indol-4-yl) = N[C@@H](Cc1cccc2[nH]ccc12)C(=O)O; Phe(3,4-Cl2) = N[C@@H](Cc1ccc(Cl)c(Cl)c1)C(=O)O; X4 = O=C([C@H](Cc1cccc2[nH]ncc12)N[*:1])[*:2]; Trp(1-Me) = Cn1cc(C[C@H](N)C(=O)O)c2ccccc21; X1 = O=C([C@H](Cc1ccc2ccccc2n1)N[*:1])[*:2]; Ala(4-thiazolyl) = N[C@@H](Cc1cscn1)C(=O)O; X3 = Nc1nc(C[C@H](N[*:1])C(=O)[*:2])c[nH]1; Oic = O=C(O)[C@@H]1C[C@@H]2CCCC[C@@H]2N1; Phe(4-F) = N[C@@H](Cc1ccc(F)cc1)C(=O)O; Dab(CONH2) = NC(=O)NCC[C@H](N)C(=O)O; Bta = N[C@@H](Cc1csc2ccccc12)C(=O)O; Gly(cPent) = N[C@H](C(=O)O)C1CCCC1; Igl = N[C@H](C(=O)O)C1Cc2ccccc2C1; hCit = NC(=O)NCCCC[C@H](N)C(=O)O; Tic = O=C(O)[C@@H]1Cc2ccccc2CN1; Cit = NC(=O)NCCC[C@H](N)C(=O)O; Agb = N=C(N)NCC[C@H](N)C(=O)O; Chg = N[C@H](C(=O)O)C1CCCCC1; NHPhenethyl = c1ccc(CCN*)cc1; Tle = CC(C)(C)[C@H](N)C(=O)O; Morpholide = C1CN(*)CCO1; Nva = CCC[C@H](N)C(=O)O; βAla = NCCC(=O)O; Sar = CNCC(=O)O

Biological target: T1, HLA-DRB1*15:01 (Homo sapiens, UniProt P01903+P01911)
T1 construct: endogenous in cells; host or cells: EBV homozygous cell lines (human)
Assay: HLA II binding assay (competitive, biotinylated reference peptide)

[1] = Table 2, DRB1*15:01 binding, unit inferred, nM, read-out: Avg IC50

SMILES | IC50 [1] [nM] | further results
CC(=O)N[C@H](C(=O)N[C@@H](CCCNC(=N)N)C(=O)N[C@@H](Cc1ccccc1)C(=O)N[C@@H](Cc1ccccc1)C(N)=O)C(C)C [PV-119, reference compound] (Ac-VRFF-NH2) | 5000 | 
CC(=O)N[C@H](C(=O)N[C@H](C(=O)N[C@@H](C)C(=O)N1Cc2ccccc2C[C@H]1C(=O)N[C@@H](Cc1ccccc1)C(N)=O)C1CCCCC1)C(C)C [PV-560] (Ac-V[Chg]A[Tic]F-NH2) | 43 | 
CC(=O)N[C@H](C(=O)N[C@H](C(=O)N[C@@H](CCNC(=N)N)C(=O)N1Cc2ccccc2C[C@H]1C(=O)N[C@@H](Cc1ccccc1)C(N)=O)C1CCCCC1)C(C)C [PV-562] (Ac-V[Chg][Agb][Tic]F-NH2) | 5.3 | 
CC(=O)N[C@H](C(=O)N[C@H](C(=O)N[C@@H](Cc1c[nH]cn1)C(=O)N1Cc2ccccc2C[C@H]1C(=O)N[C@@H](Cc1ccccc1)C(N)=O)C1CCCCC1)C(C)C [PV-580] (Ac-V[Chg]H[Tic]F-NH2) | 28 | 
CC(=O)N[C@H](C(=O)N[C@H](C(=O)N[C@@H](CCCNC(=N)N)C(=O)N1[C@H](C(=O)N[C@@H](Cc2ccccc2)C(N)=O)C[C@@H]2CCCC[C@@H]21)C1CCCCC1)C(C)C [PV-589, reference compound] (Ac-V[Chg]R[Oic]F-NH2) | 474 | 
CC(=O)N[C@H](C(=O)N[C@H](C(=O)N[C@@H](CCCNC(=N)N)C(=O)N1Cc2ccccc2C[C@H]1C(=O)N[C@@H](Cc1ccccc1)C(N)=O)C1Cc2ccccc2C1)C(C)C [PV-594] (Ac-V[Igl]R[Tic]F-NH2) | 14 | 
CC(=O)N[C@H](C(=O)N[C@H](C(=O)N[C@@H](CCCNC(=N)N)C(=O)N1Cc2ccccc2C[C@H]1C(=O)N[C@@H](Cc1ccccc1)C(=O)O)C1Cc2ccccc2C1)C(C)C [PV-624] (Ac-V[Igl]R[Tic]F-OH) | 161 | 
CNC(=O)[C@H](Cc1ccccc1)NC(=O)[C@@H]1Cc2ccccc2CN1C(=O)[C@H](CCCNC(=N)N)NC(=O)[C@@H](NC(=O)[C@@H](NC(C)=O)C(C)C)C1CCCCC1 [PV-625] (Ac-V[Chg]R[Tic]F-NHMe) |  | loss in binding affinity relative to PV-267 (N-methyl amide vs primary amide): 8 fold; IC50 (read-out: binding IC50): 16 nM
CNC(=O)[C@H](Cc1ccccc1)NC(=O)[C@@H]1Cc2ccccc2CN1C(=O)[C@H](CCCNC(=N)N)NC(=O)[C@@H](NC(=O)[C@@H](NC(C)=O)C(C)C)C1Cc2ccccc2C1 [PV-629] (Ac-V[Igl]R[Tic]F-NHMe) | 17 | 
CC(=O)N[C@H](C(=O)N[C@H](C(=O)N[C@@H](CCCNC(=N)N)C(=O)N1Cc2ccccc2C[C@H]1C(=O)N[C@@H](Cc1ccccc1)C(=O)N1CCOCC1)C1CCCCC1)C(C)C [PV-630] (Ac-V[Chg]R[Tic]F-Morpholide) |  | IC50 (read-out: binding IC50): 33 nM
CC(C)[C@H](NC(=O)CN)C(=O)N[C@H](C(=O)N[C@@H](CCCNC(=N)N)C(=O)N1Cc2ccccc2C[C@H]1C(=O)N[C@@H](Cc1ccccc1)C(N)=O)C1CCCCC1 [PV-633] (H-GV[Chg]R[Tic]F-NH2) | 1 | 
CNCC(=O)N[C@H](C(=O)N[C@H](C(=O)N[C@@H](CCCNC(=N)N)C(=O)N1Cc2ccccc2C[C@H]1C(=O)N[C@@H](Cc1ccccc1)C(N)=O)C1CCCCC1)C(C)C [PV-636] (H-[Sar]V[Chg]R[Tic]F-NH2) | 3 | 
CC(C)[C@H](NC(=O)CCN)C(=O)N[C@H](C(=O)N[C@@H](CCCNC(=N)N)C(=O)N1Cc2ccccc2C[C@H]1C(=O)N[C@@H](Cc1ccccc1)C(N)=O)C1CCCCC1 [PV-638] (H-[βAla]V[Chg]R[Tic]F-NH2) | 2 | 
CC(=O)N[C@H](C(=O)N[C@H](C(=O)N[C@@H](CCCCNC(N)=O)C(=O)N1Cc2ccccc2C[C@H]1C(=O)N[C@@H](Cc1ccccc1)C(N)=O)C1CCCCC1)C(C)C [PV-640] (Ac-V[Chg][hCit][Tic]F-NH2) | 7 | 
CC(=O)N[C@H](C(=O)N[C@H](C(=O)N[C@@H](CCNC(N)=O)C(=O)N1Cc2ccccc2C[C@H]1C(=O)N[C@@H](Cc1ccccc1)C(N)=O)C1CCCCC1)C(C)C [PV-642] (Ac-V[Chg][Dab(CONH2)][Tic]F-NH2) | 4 | 
CC(C)[C@H](NC(=O)CN)C(=O)N[C@H](C(=O)N[C@@H](CCCNC(N)=O)C(=O)N1Cc2ccccc2C[C@H]1C(=O)N[C@@H](Cc1ccccc1)C(N)=O)C1CCCCC1 [PV-661] (H-GV[Chg][Cit][Tic]F-NH2) | 5 | 
CNCC(=O)N[C@H](C(=O)N[C@H](C(=O)N[C@@H](CCCNC(N)=O)C(=O)N1Cc2ccccc2C[C@H]1C(=O)N[C@@H](Cc1ccccc1)C(N)=O)C1CCCCC1)C(C)C [PV-662] (H-[Sar]V[Chg][Cit][Tic]F-NH2) | 4 | 
CC(C)[C@H](NC(=O)CCN)C(=O)N[C@H](C(=O)N[C@@H](CCCNC(N)=O)C(=O)N1Cc2ccccc2C[C@H]1C(=O)N[C@@H](Cc1ccccc1)C(N)=O)C1CCCCC1 [PV-664] (H-[βAla]V[Chg][Cit][Tic]F-NH2) | 2 | 
CC(=O)N[C@H](C(=O)N[C@H](C(=O)N[C@@H](CCCNC(=N)N)C(=O)N1Cc2ccccc2C[C@H]1C(=O)NCCc1ccccc1)C1CCCCC1)C(C)C [PV-708, reference compound] (Ac-V[Chg]R[Tic]-NHPhenethyl) | 464 | 
CC(C)[C@H](NC(=O)CCN)C(=O)N[C@H](C(=O)N[C@@H](Cc1ccccc1)C(=O)N[C@@H](Cc1ccccc1)C(=O)N[C@@H](Cc1ccccc1)C(N)=O)C1CCCCC1 [PV-782] (H-[βAla]V[Chg]FFF-NH2) | 150 | 
CC(=O)N[C@H](C(=O)N[C@H](C(=O)NC(C(=O)N1Cc2ccccc2C[C@H]1C(=O)N[C@@H](Cc1ccccc1)C(N)=O)C1CCN(C(=N)N)CC1)C1CCCCC1)C(C)C (stereo partly shown) [PV-810] (Ac-V[Chg][ξGly(4-Pip(1-amidino))][Tic]F-NH2) | 6 | 
CC(C)[C@H](NC(=O)CCN)C(=O)N[C@H](C(=O)N[C@@H](Cc1cscn1)C(=O)N1Cc2ccccc2C[C@H]1C(=O)N[C@@H](Cc1ccccc1)C(N)=O)C1CCCCC1 [PV-833] (H-[βAla]V[Chg][Ala(4-thiazolyl)][Tic]F-NH2) | 17 | 
CC(=O)N[C@H](C(=O)N[C@H](C(=O)N[C@@H](Cc1c[nH]c(N)n1)C(=O)N1Cc2ccccc2C[C@H]1C(=O)N[C@@H](Cc1ccccc1)C(N)=O)C1CCCCC1)C(C)C [PV-839] (Ac-V[Chg][X3][Tic]F-NH2) | 25 | 

Further lines, with some results ahead:

IC50 [1] [nM] | SMILES | further results
30.1 | CC(=O)N[C@H](C(=O)N[C@@H](CCCNC(=N)N)C(=O)N1Cc2ccccc2C[C@H]1C(=O)N[C@@H](Cc1cccc2[nH]ccc12)C(N)=O)C1CCCCC1 [PV-476] (Ac-[Chg]R[Tic][Ala(indol-4-yl)]-NH2) | 
82 | CC(=O)N[C@H](C(=O)N[C@@H](CCCNC(=N)N)C(=O)N1Cc2ccccc2C[C@H]1C(=O)N[C@@H](Cc1csc2ccccc12)C(N)=O)C1CCCCC1 [PV-477] (Ac-[Chg]R[Tic][Bta]-NH2) | 
2.1 | CC(=O)N[C@H](C(=O)N[C@H](C(=O)N[C@@H](CCCNC(=N)N)C(=O)N1Cc2ccccc2C[C@H]1C(=O)N[C@@H](Cc1csc2ccccc12)C(N)=O)C1CCCCC1)C(C)C [PV-478] (Ac-V[Chg]R[Tic][Bta]-NH2) | 
1.5 | CC(=O)N[C@H](C(=O)N[C@H](C(=O)N[C@@H](CCCNC(=N)N)C(=O)N1Cc2ccccc2C[C@H]1C(=O)N[C@@H](Cc1cccc2[nH]ccc12)C(N)=O)C1CCCCC1)C(C)C [PV-493] (Ac-V[Chg]R[Tic][Ala(indol-4-yl)]-NH2) | 
48 | CC(=O)N[C@H](C(=O)N[C@@H](CCCNC(=N)N)C(=O)N1Cc2ccccc2C[C@H]1C(=O)N[C@@H](Cc1c[nH]c2ccccc12)C(N)=O)C1CCCCC1 [PV-507] (Ac-[Chg]R[Tic]W-NH2) | 
213 | CC(=O)N[C@H](C(=O)N[C@@H](CCCNC(=N)N)C(=O)N1Cc2ccccc2C[C@H]1C(=O)N[C@@H](Cc1cn(C)c2ccccc12)C(N)=O)C1CCCCC1 [PV-508] (Ac-[Chg]R[Tic][Trp(1-Me)]-NH2) | 
29 | CC(=O)N[C@H](C(=O)N[C@H](C(=O)N[C@@H](CCCNC(=N)N)C(=O)N1Cc2ccccc2C[C@H]1C(=O)N[C@@H](Cc1ccccc1)C(N)=O)C1CCCCC1)[C@@H](C)O [PV-526] (Ac-T[Chg]R[Tic]F-NH2) | 
6.7 | CC(=O)N[C@H](C(=O)N[C@H](C(=O)N[C@@H](CCCNC(=N)N)C(=O)N1Cc2ccccc2C[C@H]1C(=O)N[C@@H](Cc1ccccc1)C(N)=O)C1CCCC1)C(C)C [PV-573] (Ac-V[Gly(cPent)]R[Tic]F-NH2) | 
2.3 | CC(=O)N[C@H](C(=O)N[C@H](C(=O)N[C@@H](CCCNC(=N)N)C(=O)N1Cc2ccccc2C[C@H]1C(=O)N[C@@H](Cc1ccc(F)cc1)C(N)=O)C1CCCCC1)C(C)C [PV-574] (Ac-V[Chg]R[Tic][Phe(4-F)]-NH2) | 
1.3 | CC(=O)N[C@H](C(=O)N[C@H](C(=O)N[C@@H](CCCNC(=N)N)C(=O)N1Cc2ccccc2C[C@H]1C(=O)N[C@@H](Cc1c[nH]c2ccccc12)C(N)=O)C1CCCCC1)C(C)C [PV-579] (Ac-V[Chg]R[Tic]W-NH2) | 
1.3 | CC(=O)N[C@H](C(=O)N[C@H](C(=O)N[C@@H](CCCNC(=N)N)C(=O)N1Cc2ccccc2C[C@H]1C(=O)N[C@@H](Cc1ccccc1)C(N)=O)C1CCCCC1)C(C)(C)C [PV-590] (Ac-[Tle][Chg]R[Tic]F-NH2) | 
4.1 | CCC[C@H](NC(C)=O)C(=O)N[C@H](C(=O)N[C@@H](CCCNC(=N)N)C(=O)N1Cc2ccccc2C[C@H]1C(=O)N[C@@H](Cc1ccccc1)C(N)=O)C1CCCCC1 [PV-591] (Ac-[Nva][Chg]R[Tic]F-NH2) | 
4.1 | CO[C@H](C)[C@H](NC(C)=O)C(=O)N[C@H](C(=O)N[C@@H](CCCNC(=N)N)C(=O)N1Cc2ccccc2C[C@H]1C(=O)N[C@@H](Cc1ccccc1)C(N)=O)C1CCCCC1 [PV-592] (Ac-T(Me)[Chg]R[Tic]F-NH2) | 
4.1 | CC(=O)N[C@H](C(=O)N[C@H](C(=O)N[C@@H](CCCNC(=N)N)C(=O)N1Cc2ccccc2C[C@H]1C(=O)N[C@@H](Cc1ccc(Cl)c(Cl)c1)C(N)=O)C1CCCCC1)C(C)C [PV-593] (Ac-V[Chg]R[Tic][Phe(3,4-Cl2)]-NH2) | 
3450 | CC(=O)N[C@H](C(=O)N[C@H](C(=O)N[C@@H](CCCNC(=N)N)C(=O)N1Cc2ccccc2C[C@H]1C(=O)N[C@@H](Cc1ccc2ccccc2n1)C(N)=O)C1CCCCC1)C(C)C [PV-617, reference compound] (Ac-V[Chg]R[Tic][X1]-NH2) | 
3 | CC(=O)N[C@H](C(=O)N[C@H](C(=O)N[C@@H](CCCNC(=N)N)C(=O)N1Cc2ccccc2C[C@H]1C(=O)N[C@@H](Cc1cccc2[nH]ncc12)C(N)=O)C1CCCCC1)C(C)C [PV-676] (Ac-V[Chg]R[Tic][X4]-NH2) | 
